Test results as given in ChEMBL document CHEMBL1687748 (Antimicrob Agents Chemother, 2009).
Converted amounts (≈) assume the structure as drawn.

Columns and labels:
Format in all cases: functional
Bacillus anthracis [1] = experiment: Total sensitive organism counts of toxin and capsule gene-deficient Bacillus anthracis Sterne in hollow-fiber pharmacodynamic infection model administered as continuous infusion
Bacillus anthracis [2] = experiment: Growth rate constant of spore-phase cells going to vegetative phase in toxin and capsule gene-deficient Bacillus anthracis Sterne in hollow-fiber pharmacodynamic infection model at 250 mg administered as continuous infusion by Bayesian method
Bacillus anthracis [3] = experiment: Growth rate constant of vegetative-phase cells going to spore phase in toxin and capsule gene-deficient Bacillus anthracis Sterne in hollow-fiber pharmacodynamic infection model at 250 mg administered as continuous infusion by Bayesian method
Bacillus anthracis [4] = experiment: Growth rate constant of spore-phase cells going to vegetative phase in toxin and capsule gene-deficient Bacillus anthracis Sterne in hollow-fiber pharmacodynamic infection model at 250 mg, qd by Bayesian method
Bacillus anthracis [5] = experiment: Kill rate constant for compound-sensitive toxin and capsule gene-deficient Bacillus anthracis Sterne in hollow-fiber pharmacodynamic infection model at 150 mg, qd by Bayesian method
Bacillus anthracis [6] = experiment: Hill constant for compound-sensitive toxin and capsule gene-deficient Bacillus anthracis Sterne in hollow-fiber pharmacodynamic infection model at 200 mg, qd by Bayesian method
Bacillus anthracis [7] = experiment: Growth rate constant of vegetative-phase cells going to spore phase in toxin and capsule gene-deficient Bacillus anthracis Sterne in hollow-fiber pharmacodynamic infection model at 100 mg, qd by Bayesian method
Bacillus anthracis [8] = experiment: Total spore counts of toxin and capsule gene-deficient Bacillus anthracis Sterne in hollow-fiber pharmacodynamic infection model at 150 mg, qd by Bayesian method
Bacillus anthracis [9] = experiment: Total sensitive organism counts of toxin and capsule gene-deficient Bacillus anthracis Sterne in hollow-fiber pharmacodynamic infection model administered for every 24 hrs
Bacillus anthracis [10] = experiment: Total spore counts of toxin and capsule gene-deficient Bacillus anthracis Sterne in hollow-fiber pharmacodynamic infection model at 200 mg, qd by Bayesian method
Bacillus anthracis [11] = experiment: Total sensitive organism counts of toxin and capsule gene-deficient Bacillus anthracis Sterne in hollow-fiber pharmacodynamic infection model at 150 mg administered as continuous infusion by Bayesian method
Bacillus anthracis [12] = experiment: Total sensitive organism counts of toxin and capsule gene-deficient Bacillus anthracis Sterne in hollow-fiber pharmacodynamic infection model at 200 mg administered as continuous infusion by Bayesian method
Bacillus anthracis [13] = experiment: Antimicrobial activity against toxin and capsule gene-deficient Bacillus anthracis Sterne after 24 hrs by […] method
Bacillus anthracis [14] = experiment: Kill rate constant for compound-sensitive toxin and capsule gene-deficient Bacillus anthracis Sterne in hollow-fiber pharmacodynamic infection model at 100 mg, qd by Bayesian method
Bacillus anthracis [15] = experiment: Total sensitive organism counts of toxin and capsule gene-deficient Bacillus anthracis Sterne in hollow-fiber pharmacodynamic infection model at 100 mg administered as continuous infusion by Bayesian method
Bacillus anthracis [16] = experiment: Growth rate constant for compound-sensitive toxin and capsule gene-deficient Bacillus anthracis Sterne in hollow-fiber pharmacodynamic infection model at 150 mg administered as continuous infusion by Bayesian method
Bacillus anthracis [17] = experiment: Total sensitive organism counts of toxin and capsule gene-deficient Bacillus anthracis Sterne in hollow-fiber pharmacodynamic infection model at 250 mg administered as continuous infusion by Bayesian method
Bacillus anthracis [18] = experiment: Hill constant for compound-sensitive toxin and capsule gene-deficient Bacillus anthracis Sterne in hollow-fiber pharmacodynamic infection model at 50 mg, qd by Bayesian method
Bacillus anthracis [19] = experiment: Growth rate constant for compound-sensitive toxin and capsule gene-deficient Bacillus anthracis Sterne in hollow-fiber pharmacodynamic infection model at 150 mg, qd by Bayesian method
Bacillus anthracis [20] = experiment: Kill rate constant for compound-sensitive toxin and capsule gene-deficient Bacillus anthracis Sterne in hollow-fiber pharmacodynamic infection model at 200 mg, qd by Bayesian method
Bacillus anthracis [21] = experiment: Growth rate constant of vegetative-phase cells going to spore phase in toxin and capsule gene-deficient Bacillus anthracis Sterne in hollow-fiber pharmacodynamic infection model at 200 mg, qd by Bayesian method
Bacillus anthracis [22] = experiment: Growth rate constant of vegetative-phase cells going to spore phase in toxin and capsule gene-deficient Bacillus anthracis Sterne in hollow-fiber pharmacodynamic infection model at 150 mg administered as continuous infusion by Bayesian method
Bacillus anthracis [23] = experiment: Growth rate constant for compound-sensitive toxin and capsule gene-deficient Bacillus anthracis Sterne in hollow-fiber pharmacodynamic infection model at 100 mg, qd by Bayesian method
Bacillus anthracis [24] = experiment: Growth rate constant of spore-phase cells going to vegetative phase in toxin and capsule gene-deficient Bacillus anthracis Sterne in hollow-fiber pharmacodynamic infection model at 50 mg, qd by Bayesian method
Bacillus anthracis [25] = experiment: Growth rate constant of spore-phase cells going to vegetative phase in toxin and capsule gene-deficient Bacillus anthracis Sterne in hollow-fiber pharmacodynamic infection model at 100 mg, qd by Bayesian method
Bacillus anthracis [26] = experiment: Growth rate constant of vegetative-phase cells going to spore phase in toxin and capsule gene-deficient Bacillus anthracis Sterne in hollow-fiber pharmacodynamic infection model at 150 mg, qd by Bayesian method
Bacillus anthracis [27] = experiment: Total spore counts of toxin and capsule gene-deficient Bacillus anthracis Sterne in hollow-fiber pharmacodynamic infection model at 250 mg administered as continuous infusion by Bayesian method
Bacillus anthracis [28] = experiment: Growth rate constant of vegetative-phase cells going to spore phase in toxin and capsule gene-deficient Bacillus anthracis Sterne in hollow-fiber pharmacodynamic infection model administered for every 24 hrs
Bacillus anthracis [29] = experiment: Total spore counts of toxin and capsule gene-deficient Bacillus anthracis Sterne in hollow-fiber pharmacodynamic infection model at 50 mg, qd by Bayesian method
Bacillus anthracis [30] = experiment: Hill constant for compound-sensitive toxin and capsule gene-deficient Bacillus anthracis Sterne in hollow-fiber pharmacodynamic infection model administered for every 24 hrs
Bacillus anthracis [31] = experiment: Hill constant for compound-sensitive toxin and capsule gene-deficient Bacillus anthracis Sterne in hollow-fiber pharmacodynamic infection model at 100 mg administered as continuous infusion by Bayesian method
Bacillus anthracis [32] = experiment: Total sensitive organism counts of toxin and capsule gene-deficient Bacillus anthracis Sterne in hollow-fiber pharmacodynamic infection model at 50 mg, qd by Bayesian method
Bacillus anthracis [33] = experiment: Total spore counts of toxin and capsule gene-deficient Bacillus anthracis Sterne in hollow-fiber pharmacodynamic infection model at 250 mg, qd by Bayesian method
Bacillus anthracis [34] = experiment: Total spore counts of toxin and capsule gene-deficient Bacillus anthracis Sterne in hollow-fiber pharmacodynamic infection model at 200 mg administered as continuous infusion by Bayesian method
Bacillus anthracis [35] = experiment: Hill constant for compound-sensitive toxin and capsule gene-deficient Bacillus anthracis Sterne in hollow-fiber pharmacodynamic infection model at 250 mg administered as continuous infusion by Bayesian method
Bacillus anthracis [36] = experiment: Total spore counts of toxin and capsule gene-deficient Bacillus anthracis Sterne in hollow-fiber pharmacodynamic infection model administered for every 24 hrs
Bacillus anthracis [37] = experiment: Kill rate constant for compound-sensitive toxin and capsule gene-deficient Bacillus anthracis Sterne in hollow-fiber pharmacodynamic infection model at 150 mg administered as continuous infusion by Bayesian method

With `COc1c(N2C[C@@H]3CCCN[C@@H]3C2)c(F)cc2c(=O)c(C(=O)O)cn(C3CC3)c12` [MOXIFLOXACIN] the CFU/ml (Bacillus anthracis [1]) was 38500000, the Activity (Bacillus anthracis [2]) was 7.23 h⁻¹ and the Activity (Bacillus anthracis [3]) was 5.18 h⁻¹. For the same compound, the Activity (Bacillus anthracis [4]) was 1.04 h⁻¹, the Activity (Bacillus anthracis [5]) was 6.58 h⁻¹ and the Activity (Bacillus anthracis [6]) was 1 h⁻¹. It also gave an Activity (Bacillus anthracis [7]) of 1.38 h⁻¹, a CFU/ml (Bacillus anthracis [8]) of 1890000 and a CFU/ml (Bacillus anthracis [9]) of 41200000. For the same compound, the CFU/ml (Bacillus anthracis [10]) was 2420000, the CFU/ml (Bacillus anthracis [11]) was 23500000 and the CFU/ml (Bacillus anthracis [12]) was 20600000. It also gave an MBC (Bacillus anthracis [13]) of 1 µg/mL (≈ 2.49 µM), an Activity (Bacillus anthracis [14]) of 7.48 h⁻¹ and a CFU/ml (Bacillus anthracis [15]) of 20600000. The Activity (Bacillus anthracis [16]) was 8.25 h⁻¹, the CFU/ml (Bacillus anthracis [17]) was 21600000 and the Activity (Bacillus anthracis [18]) was 5.84 h⁻¹. It also gave an Activity (Bacillus anthracis [19]) of 7.42 h⁻¹, an Activity (Bacillus anthracis [20]) of 4.29 h⁻¹ and an Activity (Bacillus anthracis [21]) of 2.09 h⁻¹. The Activity (Bacillus anthracis [22]) was 4.94 h⁻¹, the Activity (Bacillus anthracis [23]) was 6.57 h⁻¹ and the Activity (Bacillus anthracis [24]) was 2.91 h⁻¹. The Activity (Bacillus anthracis [25]) was 25.9 h⁻¹, the Activity (Bacillus anthracis [26]) was 0.0657 h⁻¹ and the CFU/ml (Bacillus anthracis [27]) was 1860000. The Activity (Bacillus anthracis [28]) was 4.96 h⁻¹, the CFU/ml (Bacillus anthracis [29]) was 1860000 and the Activity (Bacillus anthracis [30]) was 29.8 h⁻¹. It also gave an Activity (Bacillus anthracis [31]) of 20.9 h⁻¹, a CFU/ml (Bacillus anthracis [32]) of 19600000 and a CFU/ml (Bacillus anthracis [33]) of 2360000. It also gave a CFU/ml (Bacillus anthracis [34]) of 1870000, an Activity (Bacillus anthracis [35]) of 30 h⁻¹ and a CFU/ml (Bacillus anthracis [36]) of 1740000. It also gave an Activity (Bacillus anthracis [37]) of 8.28 h⁻¹.
